What was measured:
mice = conditions: according to published information; cited from earlier work
migraine headaches = assay: Use of linalool shampoo by individuals suffering from migraines; type: in vivo, human; conditions: same individual, prescription drug taken before the shampoo use
Description: One individual who had suffered from migraines for several years and who had taken the prescription drug Prozac® with only limited benefits, started using a commercial product, Ivory Shampoo®, with approximately 1% by volume of linalool added. […] Other commercially available shampoos containing little perfume with approximately 1% by volume of linalool added were substituted for the Ivory Shampoo with linalool and the benefit persisted. Another commercially available shampoo that has been used with about 1% by volume of linalool added is Botanical Nutrients® soyflower shampoo containing: water; extracts of geranium maculatum (geranium), Echinacea angustifolia (coneflower), and lavendula angustifolia (lavender); ammonium lauryl sulfate; decyl glucoside; cocoamide MEA; PPG-5-ceteth-10-phosphatel cocoamidopropyl betaine; fragrance; polyquatemium-7; glycerin; panthenol; hydrolyzed soy protein; isostearamidopropyl morpholine lactate; vitamin E; disodium wheat germamido PEG-2 sulfosuccinate; guar hydroxypropyl ammonium chloride; PEG-150 distearate; PEG-30 castor oil; PEG-12 dimethicone; benzophenone-4; disodium EDTA; diazolidinyl urea; methylparaben; and citric acid. Another shampoo that has been used is Bath & Body Works® Bio balancing shampoo.
When this individual stopped using the commercial shampoos containing about 1% linalool, a migraine headache was experienced. […]

Compound | tumors in mice (mice) | prevention of migraine headaches by prescription drug (migraine headaches)
C=C(C)[C@H]1CC=C(C)CC1 [Limonene] | shown to cause tumors in mice | –
CNCCC(Oc1ccc(C(F)(F)F)cc1)c1ccccc1 (centres unmarked) [Prozac] | – | had not prevented migraine headaches
